Experimental data: paper PMC9687798, “Atypical Substrates of the Organic Cation Transporter 1” (Biomolecules, 2022)
Positions count from the first letter of the chain named.

Columns and labels:
human OCT1*1 (wild-type) = biological target: T1, human OCT1*1 (wild-type) (Homo sapiens, UniProt O15245); experiment: Cellular uptake ratio, OCT1-overexpressing HEK293 cells vs empty vector; assay type: cell-based
T1 sequence (O15245 1-554): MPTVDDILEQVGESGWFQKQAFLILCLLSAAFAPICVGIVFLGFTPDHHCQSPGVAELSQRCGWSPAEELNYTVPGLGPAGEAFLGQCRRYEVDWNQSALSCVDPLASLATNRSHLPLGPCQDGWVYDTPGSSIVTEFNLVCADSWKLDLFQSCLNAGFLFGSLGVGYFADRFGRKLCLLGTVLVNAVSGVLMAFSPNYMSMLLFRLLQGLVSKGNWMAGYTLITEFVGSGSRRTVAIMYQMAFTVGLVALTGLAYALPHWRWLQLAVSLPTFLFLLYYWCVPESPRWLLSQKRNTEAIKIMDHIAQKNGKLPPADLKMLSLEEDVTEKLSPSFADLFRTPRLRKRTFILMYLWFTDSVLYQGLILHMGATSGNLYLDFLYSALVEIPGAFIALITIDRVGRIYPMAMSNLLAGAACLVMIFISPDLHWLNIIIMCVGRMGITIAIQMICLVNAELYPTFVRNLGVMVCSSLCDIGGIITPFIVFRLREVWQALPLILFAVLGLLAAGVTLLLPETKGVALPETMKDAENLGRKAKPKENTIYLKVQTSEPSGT
Procedure, shortened: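 Flp-In HEK293 cells stably expressing transporter, or empty pcDNA5/FRT vector as control, incubated at 37 °C in HBSS with 10 mM HEPES, pH 7.4, with substrate. Uptake quantified by LC-MS with internal standard and normalised to total protein. Ratio = total uptake in transporter cells divided by that in empty-vector cells.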

OCT1*3 (R61C) = biological target: T2, OCT1*3 (R61C) (Homo sapiens, UniProt O15245, R61C); experiment: Cellular uptake by HEK293 cells overexpressing OCT1*3; assay type: cell-based; details: for uptake by OCT1*3 in comparison to OCT1*1: 1 µM substance; for uptake of prostaglandins by OCT1*3 in comparison to wild-type: 1, 10 and 100 µM, 120 s
T2 construct: expressed in transfected cells
T2 sequence (O15245 1-554 R61C): T1 sequence (O15245 1-554) with R61C
Method: The transport experiments were performed using HEK293 cells that overexpress human OCT1*1 (wild-type), mutant human OCT1 D474N, variant human OCT1*2 (M420del) and OCT1*3 (R61C), wild-type human OCT2, and OCT3 after stable transfection. The wild-type cell lines of OCT1 and OCT2, as well as the variant cell lines OCT1*2 and *3, were generated using the Flp-In system (Thermo Fisher Scientific, Darmstadt, Germany) as described in previous publications. The cell line overexpressing OCT3 was a kind gift from Dr. Koepsell and Dr. Gorbulev (University of Würzburg, Germany). Cells transfected with the empty pcDNA5/FRT vector were used for the transport experiments as a control cell line. All cells were cultured approximately up to passage 30.
Forty-eight hours before the transport experiments, 600,000 cells were plated on 12-well plates pre-coated with poly-D-lysine and incubated at 37 °C with 5% CO2. The prepared 12-well plate with cells was positioned on a heating plate pre-warmed to 37 °C. After removing the medium, the cells were washed with 37 °C HBSS+ (10 mM HEPES in Hank’s balanced salt solution, pH 7.4). Then, one pre-defined concentration of a substrate was added to each well. The incubation period was stopped by adding 2 mL of 4 °C HBSS+ and removing the cells from the heating plate. The cells were washed twice with 4 °C HBSS+. For cell lysis, the cells were incubated for 15 min with 500 µL of 80% acetonitrile (LGC Standards, Wesel, Germany), which contained a respective internal standard (Table 1).
For time-dependent transport, the cells were incubated with 1 µM of the substance for 15 to 240 s to determine the linear uptake range ≥ 15 s. For concentration-dependent transport, the cells were incubated with defined substrate concentrations (0.1, 1, 10, 30, 100, 300, 600, 1000 µM) for the respective pre-defined incubation times. […]; 100 µM) and pre-defined incubation times. The uptake by a transporter was normalised to the uptake by empty vector-transfected cells. […] The results of transport experiments were normalized to the total protein concentration per well. Total protein quantification was performed using a bicinchoninic acid assay with bovine serum albumin as standard.
The ratios of cellular uptake were calculated by dividing the total uptake of transporter-overexpressing cells by the total uptake into empty vector transfected cells. The concentration-dependent cellular net uptake was used for analysis of transport kinetics by subtracting for each substrate concentration the uptake of empty vector-transfected cells from the uptake of transporter-overexpressing cells. The transport kinetic parameters Vmax and KM were determined with non-linear regression by using the Michaelis–Menten equation for net uptake data and by using the Michaelis–Menten equation extended with a linear term for total uptake data (GraphPad Prism 5.01, GraphPad software, LA Jolla, CA, USA). The intrinsic clearance Clint was expressed with the ratio of Vmax and KM.

[1] = based on ratio uptake data at 1 µM
[2] = based on ratio uptake data at 100 µM (footnote *)

Row | Structure (SMILES) | OCT1 transport category (human OCT1*1 (wild-type); [1]) | uptake by OCT1*3 in comparison to OCT1*1 (OCT1*3 (R61C)) | other results
1 | Nc1ccn([C@H]2CC[C@@H](CO)O2)c(=O)n1 [Zalcitabine, zalcitabine] | + (good substrates of OCTs when the intrinsic clearance is between 5–15 or the ratio is 2–10) | reduction in uptake | –
2 | COc1cc(Cc2cnc(N)nc2N)cc(OC)c1OC [Trimethoprim, trimethoprim] | + (good substrates of OCTs when the intrinsic clearance is between 5–15 or the ratio is 2–10) | reduction in uptake | –
3 | CCCCC[C@H](O)/C=C/[C@@H]1[C@@H](C/C=C\CCCC(=O)O)[C@@H](O)C[C@H]1O [Prostaglandin F2α, prostaglandin F2α] | – | – | OCT1 transport category (human OCT1*1 (wild-type); [2]): + (good substrates of OCTs when the intrinsic clearance is between 5–15 or the ratio is 2–10); uptake of prostaglandins by OCT1*3 in comparison to wild-type (OCT1*3 (R61C)): reduced to the level of the control cell line
4 | N=C(N)c1ccc(OCCCCCOc2ccc(C(=N)N)cc2)cc1 [Pentamidine, pentamidine] | +/− (poor transport with a Clint < 5 or ratio between 1–2 with statistical significance (p < 0.05)) | to a small extent | –
5 | CCCCC[C@H](O)/C=C/[C@H]1[C@H](O)CC(=O)[C@@H]1C/C=C\CCCC(=O)O [Prostaglandin E2, prostaglandin E2] | – | – | uptake ratio of prostaglandins by OCT1 wild-type (human OCT1*1 (wild-type); 1, 10 and 100 µM, 120 s): strongly increased uptake by OCT1 at higher concentrations; OCT1 transport category (human OCT1*1 (wild-type); [2]): + (good substrates of OCTs when the intrinsic clearance is between 5–15 or the ratio is 2–10); uptake of prostaglandins by OCT1*3 in comparison to wild-type (OCT1*3 (R61C)): reduced to the level of the control cell line
6 | Nc1nc(=O)n([C@@H]2CS[C@H](CO)O2)cc1F [Emtricitabine, emtricitabine] | – | reduction in uptake | uptake ratio by OCT1 (normalised to empty vector) (human OCT1*1 (wild-type); 1 µM and 100 µM substance): around 4
7 | N[C@@H](Cc1ccc(O)c(O)c1)C(=O)O [Levodopa, levodopa] | 0 (no transport by OCT1, OCT2, and OCT3 occurred (i.e., no kinetic parameters or uptake ratio <2 without significance)) | – | –
